# Assays:
# [1] = test system: rabbits with endotoxic shock; conditions: serums of rabbits with endotoxic shock; cited from earlier work
# [2] = In-vitro release degree in simulated pulmonary fluid (dialysis bag, HPLC); format: physicochemical; conditions: simulated pulmonary fluid pH 7.4, 37° C.
# Experimental: With the triacetyl andrographolide nanocrystal prepared in Example 1 as an experimental subject, an activated dialysis bag with a molecular weight cut-off of 8000-14000 Da was taken, 5 mL of a simulated pulmonary fluid was added into the dialysis bag, the triacetyl andrographolide nanocrystal (0.5 mg by triacetyl andrographolide) was precisely weighed and dispersively suspended in the above simulated pulmonary fluid, two ends were tightened, then the dialysis bag was put into a conical flask containing 100 mL of a simulated pulmonary fluid in-vitro release medium (composition of the medium as shown in Table 1), the conical flask was placed in a constant-temperature gas bath shaker (37° C., 120 r/min), 2 mL of a released liquor was taken at each of different time points (0.5 h, 1 h, 2 h, 4 h, 6 h, 8 h, 12 h, 24 h, 36 h and 48 h) and was filtered through a 0.22 μm filter membrane, subsequence filtrates were taken to determine drug concentrations by adopting an HPLC method, and at the same time, the release medium was supplemented with 2 mL of an isothermal simulated pulmonary fluid. A cumulative release percentage was calculated according to determined results, and a release curve of the nanocrystal was drawn. […]
# [3] = in vivo; cited from earlier work
# [4] = test system: LPS-induced RAW264.7 cell; conditions: supernatant of LPS-induced RAW264.7 cell culture fluid; cited from earlier work
# [5] = set-up: species or system SD rats; conditions: rat, in vivo, po, 200 mg/kg
# Experimental: The triacetyl andrographolide nanocrystal obtained in Example 1 was adopted, and a total of 12 SD rats were used as test objects (half female and half male, 200±20 g).
# The rats were randomly divided into 2 groups (n=6, half female and half male) by body weight before a test was started. The test was carried out after fasting without water-deprivation for 12 h, one group was fed with a triacetyl andrographolide active pharmaceutical ingredient suspension (dosage of 200 mg/kg) via intragastric administration, and the other group was fed with a triacetyl andrographolide nanocrystal suspension (50 mg/kg by triacetyl andrographolide) via intragastric administration.
# With an active pharmaceutical ingredient as reference, relative bioavailability of the triacetyl andrographolide nanocrystal was calculated according to the following formula:
# [formula] • where AUC0-t, nanocrystal and AUC0-t, active pharmaceutical ingredient corresponded to areas under the plasma concentration-time curves at a moment 0-t of the triacetyl andrographolide nanocrystal and the active pharmaceutical ingredient respectively; and
# Doseactive pharmaceutical ingredient and Dosenanocrystal corresponded to intragastric administration dosages of the triacetyl andrographolide active pharmaceutical ingredient and the nanocrystal respectively.
# • where MRT(0-t) is a mean value of in-vivo retention time of drug molecules, representing time required for eliminating 63.2% of drugs in vivo; • T1/2 is a terminal elimination half-life, which is time required for a terminal phase plasma concentration to decrease by half; • Tmax is time required to reach a peak concentration of drug after administration, this parameter reflects a speed at which a drug enters the body, and the faster the absorption rate, the shorter the time to peak; • Cmax is a peak concentration of drug, the highest value of a plasma concentration occurring after administration, and this parameter is an important indicator reflecting a rate and degree of drug absorption in the body; • Vd is a proportionality constant between a drug dosage in the body and a plasma concentration when a drug reaches dynamic equilibrium in the body, usually with Las the unit, and this parameter reflects the degree of a distribution range of the drug in the body, with higher values indicating the wider distribution; and an apparent volume of distribution is numerically obtained by a ratio of a clearance rate to a terminal elimination rate; • F is bioavailability, a measure for a speed and degree at which a drug is absorbed into blood circulation, and is an important indicator for evaluating a degree of drug absorption; and the bioavailability may be divided into absolute bioavailability and relative bioavailability, the former is used to compare an absorption difference between two administration routes, while the latter is used to evaluate an absorption difference between two preparations; and • CL is a clearance rate, a value of an apparent volume of distribution of drugs cleared from the body per unit time, usually with L/h as the unit, and this parameter is an important parameter reflecting the body's drug disposal characteristics and is closely related to physiological factors; and the clearance rate is obtained according to a ratio of a dosage to AUC(0-∞).
smiles,measurement,setting,value
"C=C1CC[C@@H]2[C@](C)(COC(C)=O)[C@H](OC(C)=O)CC[C@@]2(C)[C@@H]1C/C=C1/C(=O)OC[C@H]1OC(C)=O [active pharmaceutical ingredient, triacetyl andrographolide]",content of IL-1β,[1],can reduce
same,content of TNF-α,[1],can reduce
same,cumulative release percentage,[2]; 12 h,39%
same,cumulative release percentage,[2]; 48 h,42%
same,absolute bioavailability,[3],7.19%
same,absolute bioavailability relative to that of andrographolide,[3],more than 7 times
same,content of IL-1β,[4],can reduce
same,content of TNF-α,[4],can reduce
same,AUC(0-t),[5],1924 ± 277.9 ng·h/mL
same,CL/F,[5],2000 mL/min/kg
same,Cmax,[5],495.1 ± 172.6 ng/mL
same,MRT(0-t),[5],8.07 ± 0.22 h
same,T1/2,[5],4.79 ± 1.81 h
same,Tmax,[5],6.67 ± 0.47 h
same,Vd,[5],800 ± 360 L/kg

# — patent US20250302765A1, “TRIACETYL ANDROGRAPHOLIDE NANOCRYSTAL AND PREPARATION METHOD AND APPLICATION THEREOF” (Henan University, priority 2024, published 2025)
